The text below walks through data of publication PMC8466755, “GPCR Pharmacological Profiling of Aaptamine from the Philippine Sponge Stylissa sp. Extends Its Therapeutic Potential for Noncommunicable Diseases” (Molecules, 2021).

≈ marks a conversion by molar mass, not a printed value.

One assay deals with T1, CCR3 (Homo sapiens, UniProt P51677).
T1 sequence (P51677 1-355): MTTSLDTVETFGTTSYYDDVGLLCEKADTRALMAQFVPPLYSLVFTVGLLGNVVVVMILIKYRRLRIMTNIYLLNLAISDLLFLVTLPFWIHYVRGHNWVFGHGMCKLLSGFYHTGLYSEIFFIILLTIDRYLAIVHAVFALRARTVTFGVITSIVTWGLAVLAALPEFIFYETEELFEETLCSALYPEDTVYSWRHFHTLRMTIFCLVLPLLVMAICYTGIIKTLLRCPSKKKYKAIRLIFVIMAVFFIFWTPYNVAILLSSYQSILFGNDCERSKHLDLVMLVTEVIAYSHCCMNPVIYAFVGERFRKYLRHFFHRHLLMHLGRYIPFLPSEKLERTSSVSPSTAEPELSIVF
The assay is described as follows: PathHunter β-arrestin assay, positive allosteric modulation (PAM) mode. The class given is cell-based. The settings on record: control agonist at EC20. Here is the method:
(§1) Hit validation was performed by subjecting the aaptamine to an agonist, antagonist, and positive allosteric modulation (PAM) secondary screen utilizing thirteen GPCR biosensor assays (Arrestin) against the following targets: ADRA2A, ADRA2C, ADRB2, CCR1, CCR3, CXCR3, CXCR7, DRD2L, DRD2S, DRD4, HTR1E, OPRK1, and SSTR1. The assays were performed at 10-point concentrations using three-fold serial dilutions in duplicate. For all the assay formats, the final assay vehicle concentration was 1%.
(§2) For PAM assays, the cells were preincubated with the sample followed by agonist induction at the EC20 concentration. To the cells, 5 µL of 5X sample was added and incubated for 30 min at 37 °C or room temperature. Following the incubation period, 5 µL of the 6X EC20 agonist prepared in an assay buffer was added to the cells and incubated for 90 or 180 min at 37 °C or room temperature. The percent activity of aaptamine was calculated following this formula: % modulation = 100% × ((mean RLU of test sample − mean RLU of EC20 control)/(mean RLU of MAX control ligand − mean RLU of EC20 control)).

Another assay deals with T2, CXCR3 (Homo sapiens, UniProt P49682).
T2 sequence (P49682 1-368): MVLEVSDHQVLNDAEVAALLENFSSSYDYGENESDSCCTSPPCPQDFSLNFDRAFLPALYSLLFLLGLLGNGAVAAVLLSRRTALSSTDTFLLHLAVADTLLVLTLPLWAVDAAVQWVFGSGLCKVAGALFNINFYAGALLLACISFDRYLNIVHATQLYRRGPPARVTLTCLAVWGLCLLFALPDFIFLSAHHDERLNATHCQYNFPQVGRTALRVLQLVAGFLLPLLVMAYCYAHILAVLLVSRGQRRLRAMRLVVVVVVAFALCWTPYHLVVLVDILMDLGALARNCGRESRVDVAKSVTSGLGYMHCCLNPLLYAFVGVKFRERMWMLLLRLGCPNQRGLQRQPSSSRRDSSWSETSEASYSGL
Described as above. Type of assay: cell-based. The conditions noted are these: control agonist at EC20. Here is the method:
as §1, §2

For assay [1], the target named is delta opioid receptor (δ-OR, OPRD1). Also on record: method as in PMID 27744679. The conditions noted are these: calcium mobilization pathway; read-out: EC50 agonist, delta opioid receptor; cited from earlier work. For orientation: Calcium assays in cells follow changes in intracellular calcium, usually with a dye or a luminescent sensor.
The target of the next assay is DRD2S (Homo sapiens, UniProt P14416). Put plainly: PathHunter β-arrestin assay, antagonist mode. The class given is cell-based. The protocol: Aaptamine (20 µM) was profiled in gpcrMAX panel biosensor assays (in agonist and antagonist modes) against a panel of 168 GPCRs. The assay was performed by DiscoverX Corporation (Fremont, CA) using PathHunter β -arrestin enzyme fragment complementation (EFC) technology, in a similar way to that described elsewhere. The PathHunter cell lines were taken from freezer stocks according to standard procedures. A total of 20 µL of cells were seeded into white 384-well plates and incubated at 37 °C for the appropriate time prior to testing.
Chain of DRD2S (P14416 1-414 isoform P14416-2): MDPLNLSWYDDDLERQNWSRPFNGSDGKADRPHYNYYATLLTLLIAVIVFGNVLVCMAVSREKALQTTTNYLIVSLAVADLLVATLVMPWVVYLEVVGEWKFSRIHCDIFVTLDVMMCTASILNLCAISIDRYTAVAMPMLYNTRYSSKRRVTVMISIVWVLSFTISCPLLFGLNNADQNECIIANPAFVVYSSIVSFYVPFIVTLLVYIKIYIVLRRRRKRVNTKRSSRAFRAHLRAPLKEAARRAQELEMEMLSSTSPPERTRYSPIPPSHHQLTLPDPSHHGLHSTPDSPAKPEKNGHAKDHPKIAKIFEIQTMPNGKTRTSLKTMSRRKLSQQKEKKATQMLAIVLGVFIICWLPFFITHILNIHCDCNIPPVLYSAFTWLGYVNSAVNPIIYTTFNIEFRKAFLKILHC
For antagonist determination, PathHunter cells were preincubated with aaptamine followed by the addition of an agonist. In this assay format, the standard agonist was added at an EC80 concentration. To the plate that contained the cells, 5 µL of the 5X sample was added and incubated for 30 min at 37 °C or room temperature. After the incubation period, 5 µL of the 6X EC80 agonist in an assay buffer was added to the cells and incubated for additional 90 or 180 min at 37 °C or room temperature.
Hit validation was performed by subjecting the aaptamine to an agonist, antagonist, and positive allosteric modulation (PAM) secondary screen utilizing thirteen GPCR biosensor assays (Arrestin) against the following targets: ADRA2A, ADRA2C, ADRB2, CCR1, CCR3, CXCR3, CXCR7, DRD2L, DRD2S, DRD4, HTR1E, OPRK1, and SSTR1. […]

Assay [2] addresses mu opioid receptor (μ-OR). Also on record: method as in PMID 27744679. The conditions noted are these: read-out: EC50 agonist, mu opioid receptor; cited from earlier work.
For another assay, the system named is Candida tropicalis. Also on record: method as in doi:10.1016/S0040-4020(03)01069-X. The conditions noted are these: antifungal; cited from earlier work.
The test system of another assay is proteasome. Also noted: method as in PMID 20451377. The conditions noted are these: read-out: proteasome inhibitory activity IC50; cited from earlier work.
A further assay deals with ADRB2 (Homo sapiens, UniProt P07550). Put plainly: PathHunter β-arrestin assay, antagonist mode. Type of assay: cell-based.
Chain of ADRB2 (P07550 whole entry): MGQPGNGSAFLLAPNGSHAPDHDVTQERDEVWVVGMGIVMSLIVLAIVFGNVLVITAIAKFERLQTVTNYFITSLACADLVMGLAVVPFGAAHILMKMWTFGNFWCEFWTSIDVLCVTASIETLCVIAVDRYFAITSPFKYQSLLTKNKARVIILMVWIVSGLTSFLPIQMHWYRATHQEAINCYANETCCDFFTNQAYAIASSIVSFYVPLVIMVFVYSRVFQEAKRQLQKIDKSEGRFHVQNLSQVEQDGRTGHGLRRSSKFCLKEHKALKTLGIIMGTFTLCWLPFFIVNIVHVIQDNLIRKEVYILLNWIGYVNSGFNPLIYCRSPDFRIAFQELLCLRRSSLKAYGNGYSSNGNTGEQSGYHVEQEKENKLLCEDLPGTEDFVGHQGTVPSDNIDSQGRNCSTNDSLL
In the next assay the test system is α-adrenoreceptor. Also noted: method as in PMID 6150989. The conditions noted are these: vascular smooth muscle of male albino rabbits, displacement analysis; cited from earlier work.
[3] abbreviates: PAM mode, read-out: Dose-Response Maximal Response, % Activation.
[4] abbreviates: dose-response, read-out: EC50 (PAM).
The mark [5] stands for this setting: dose-response analysis, read-out: Dose-Response Maximal Response, % Inhibition.

Description for ADRB2: The assay was performed by DiscoverX Corporation (Fremont, CA) using PathHunter β -arrestin enzyme fragment complementation (EFC) technology, in a similar way to that described elsewhere [35, 36]. The PathHunter cell lines were taken from freezer stocks according to standard procedures. A total of 20 µL of cells were seeded into white 384-well plates and incubated at 37 °C for the appropriate time prior to testing.

For `COc1cc2ccnc3c2c(c1OC)NC=C3` [aaptamine], the Emax on CCR3 (setting [3]) was determined as 33%; on CXCR3 (setting [3]) it was 74.6%; on DRD2S (setting [5]), 74.4%; on ADRB2 (setting [5]) it was 96.5%. In addition, the EC50 is 16.2 µM at CCR3 (setting [4]), 31.8 µM on CXCR3 (setting [4]), 5.1 µM in [1] and 10.1 µM in assay [2]. The IC50 on DRD2S (dose-response, antagonist mode) was 25.7 µM; in the assay on proteasome it was 19 µM; against ADRB2 (dose-response, antagonist mode), 200 nM. Besides, the minimum inhibitory concentration (MIC) in the assay on Candida tropicalis was 110 µM (≈ 25.1 µg/mL). In addition, on ADRB2 (from IC50 values), the “selectivity for ADRB2 over ADRA2C” value is listed as above 50 fold. Also, the “effective concentration, α-adrenoreceptor antagonism” value in the assay with α-adrenoreceptor is 30 µM.

By IC50 is commonly meant the concentration at which inhibition is half-maximal. The MIC is the lowest concentration that inhibits growth of the organism.
